According to US20250340529A1, “Heterocyclic Compounds as Immunomodulators of PD-L1 Interactions” (Ascletis BioScience Co., Ltd, priority 2021, published 2025):

Assays:
[1] = test system: Hep3B-OS8-hPDL1 cells and CD3+ T cells; assay: Hep3B-OS8-hPDL1 and T cells co-culture assay (IFN-γ by ELISA); format: cell-based; settings: Homo sapiens, T-cell, 72 hours, read-out: Tumor and T Cell EC50 (nm)
Description: a. Hep3B-OS8-hPDL1 and T Cells Co-Culture Assay
• 1. Hep3B-OS8-hPDL1 cells were cultured in 1640 medium supplemented with 10% fetal bovine serum, 1% penicillin and streptomycin, in which 100 μg/mL G418 and Hygromycin B were also added. • 2. Hep3B-OS8-hPDL1 cells were harvested and treated with 10 μg/mL mitomycin C at 37° C. for 1.5 h, and the cells were then washed thoroughly with PBS for four times. • 3. Cells were re-suspended with RPMI 1640 medium containing 10% FBS and the cell density was adjusted to 5E5 cells/mL. • 4. Cells were seeded into 96-well flat bottom plate (2.5E4 cells/50 μL/well). b. CD3+ T Cells Isolation (30 mL Blood) • 5. The human blood sample from an individual donor is diluted by the same volume of sterile PBS, for instance add 25 mL sterile PBS into 25 mL fresh whole blood and mix sufficiently by gentle shake. • 6. Transfer 15 mL Lymphoprep medium into a new 50 mL centrifuge tube. • 7. Add the diluted blood sample as soft as possible onto the surface of the Ficoll medium to make sure there is a clear dividing line between the two liquids, and the volume ratio between Ficoll and diluted blood (30 mL) is 1:2. • 8. Move the tube gently to centrifuge, at 1000×g, 25 min, 20° C., with the acceleration (5) and Min deceleration (0) settings during the centrifugation. • 9. Four interfaces in all could be observed after the centrifugation, which are layers of plasma, mononuclear cells, the Ficoll medium and RBCs from top to bottom, and move the tube as gently as possible so as keep the four interfaces separated. Absorb and transfer the second layer of mononuclear cells into another new sterile centrifuge tube carefully, and absorb certain volume of plasma instead of the Ficoll medium if inevitable. • 10. Add sterile PBS of the three times the volume of PBMCs in the tube with PBMC. • 11. Wash the cells twice with 5-10 mL PBS before cell counting with cytometer. Centrifuge at 350×g, 10 min, 20° C. With the acceleration (5) and deceleration (5) settings during the centrifugation. • 12. Resuspend the cells with recommended medium and adjust the density of the PBMCs to the final concentration of 5E7 cells/mL. • 13. Isolate CD3+ T cells with EasySep™ Human T Cell Isolation Kit (STEMCELL Technologies #17951), and the cells were seeded into 96-well flat bottom plate (5E4 cells/100 μL/well). c. Compounds solutions preparation • 14. Prepare the Compounds dilutions in RPMI 1640 medium with 10% FBS according to the Layout. 15. Add compounds into each well in a volume of 50 μL. {3 compounds (GLC01-258, GLC01-269, GLC01-465) in 7 concentrations (0.03, 0.1, 0.3, 1, 3, 10 and 30 μM) and 6 compounds (GLC01-411, GLC01-292, GLC01-445, GLC01-475, GLC01-470 and GLC01-468) in the same concentration (1 μM)}. • 16. […]

PD-L1/CHO-K1 cells = PD-L1/CHO-K1 cells (Homo sapiens (Human), UniProt Q9NZQ7); assay: PD-L1 internalization (FACS, PD-L1/CHO-K1 cells); format: cell-based; settings: % activation of PD-L1 internalization = 1 − PD-L1 signal; 17 hours incubation
Chain of PD-L1/CHO-K1 cells (Q9NZQ7 19-290): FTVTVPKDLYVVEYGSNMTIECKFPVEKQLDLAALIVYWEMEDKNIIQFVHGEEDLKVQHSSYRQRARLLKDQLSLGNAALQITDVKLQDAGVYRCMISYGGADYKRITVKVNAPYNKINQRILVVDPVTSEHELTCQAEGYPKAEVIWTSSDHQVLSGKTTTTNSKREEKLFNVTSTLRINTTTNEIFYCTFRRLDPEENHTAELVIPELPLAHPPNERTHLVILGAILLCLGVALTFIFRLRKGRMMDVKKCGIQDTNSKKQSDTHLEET
Description: Day 1. Seeding cells: Digest the PD-L1/CHO-K1 cells by trypsin in the flask, then counting the cell number and diluted to 1×10^5 cells/ml. Seeding cells to 6 well plate (Corning, #3516), 2 mL/well. The plates were incubated at 37° C., […] incubator for 24 hours.
Day 2. Preparing compounds and treated cells: Dilute GLC01-258 from 15 mM to 0.5 mM by using DMSO, and 15 mM compound were serial diluted from 15 mM˜15 nM by DMSO, Then 500 times dilute the compounds by using assay buffer. Prepare 0.2% DMSO in assay buffer used for Vehicle control and low control. Take out the plates, aspirated the medium and thrown away. Adding 2 mL of the diluted compounds, vehicle control and low control to corresponding wells. Then incubated the plates for 17 hours at 37° C., 5% CO2 incubator.
Day 3. Preparing samples for FACS: After 17 hours incubation, discarded medium and washed by the PBS. Cells in each well were Digested by trypsin. Centrifuge and discard the supernatant, then wash the cells by DPBS (Ca^2+, Mg^2+ free) for twice. 10 fold dilute the antibody (PE-conjugated mouse anti-human CD274) by DPBS, then adding the staining solution to compounds treated samples and vehicle control sample. The low control only add DPBS without antibody. Incubate the plates at room temperature for 20 minutes and protect from light. After 20 minutes, wash the samples by DPBS for twice. Then centrifuge and discard the supernatant. Resuspend cells by 300 uL DPBS and transfer the samples to 5 mL Polystryrene Round-Bottom Tube (Falcon, #352054), then tested by BD FACSCanto. […].
Set the PD-L1 signal of vehicle control as 100%, PD-L1 signal of Low control as 0%. Then calculate the compound treated samples' PD-L1 signal
0% PD-L1 signal: Low control which stained without anti-CD274
100% PD-L1 Signal: vehicle control which stained with anti-CD274
The % activation of PD-L1 Internalization=1−PD-L1 signal of compound.

[2] = target: extracellular domains of PD-L1 (Homo sapiens (Human), UniProt Q9NZQ7); assay: PD-L1 dimerization (biochemical protein-protein interaction assay); settings: PDL1-Eu and PDL1-A2, 25° C., 120 min
Chain of extracellular domains of PD-L1 (Q9NZQ7 19-238): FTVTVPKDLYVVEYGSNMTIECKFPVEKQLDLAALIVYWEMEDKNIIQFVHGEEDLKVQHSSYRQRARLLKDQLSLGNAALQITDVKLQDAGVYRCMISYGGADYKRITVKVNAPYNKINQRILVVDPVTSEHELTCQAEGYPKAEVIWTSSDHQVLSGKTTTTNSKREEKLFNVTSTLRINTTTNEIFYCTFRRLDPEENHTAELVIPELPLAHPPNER
Description: Compounds were tested in biochemical protein-protein interaction assays to determine if they can specifically dimerize the extracellular domains of PD-L1. • (1) Dilute cpd 1:3 in succession in DMSO for each column for 10±0 pts (refer to dilution plate map) • (2) Transfer 0.2 μL cpds solution in each row to 384 assay plate using Echo, each column containing 2 replicates (refer to assay plate map). • (3) Add 20 μL prepared mixture include PDL1-Eu and PDL1-A2 solution to assay plate, centrifuge at 1000 rpm for 1 min. • (4) Incubate at 25° C. for 120 min. • (5) Read fluorescence signal on Envision 2104 plate reader. • (6) Read the Ratio (665 nm/615 nm) signal on Envision. • (7) Analyze the raw data using the equation (V. Data analysis)

PD-1/PD-L1 = PD-1/PD-L1 (Homo sapiens (Human), UniProt Q9NZQ7); assay: PD-1/PD-L1 Homogeneous Time-Resolved Fluorescence (HTRF) binding assay; settings: 3 nM PD1, 10 nM PD-L1, 25° C., PBS pH 7.4
Chain of PD-1/PD-L1 (Q9NZQ7 19-238): as above
How it was run: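 HTRF with His-tagged human PD-L1 (19-238, 10 nM) and Fc-tagged human PD-1 (25-167, 3 nM) preincubated with inhibitors 40 min in PBS pH 7.4, 0.05% Tween-20, 0.1% BSA, 1% DMSO, 25° C. Eu anti-human IgG and anti-His-APC added, 60 min; 665/620 nm ratio; IC50 from percent control activity fit.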

Structure (SMILES)	EC50 [1]	Internalization (PD-L1/CHO-K1 cells)	EC50 [2]	IC50 (PD-1/PD-L1)
O=C(O)[C@H](CO)NCCN1C(=O)COc2cc(-c3cccc(-c4cccc(-c5ccc6c(c5)OCC(=O)N6C[C@@H]5CCCN5)c4Cl)c3Cl)ccc21 [Compound 533]	6.03 nM	32.70%	91 nM	7.11 nM
O=C(O)[C@H](CO)NCCN1C(=O)COc2cc(-c3cccc(-c4cccc(-c5cc6c(cc5F)N(CCN[C@@H](CO)C(=O)O)C(=O)CO6)c4Cl)c3Cl)c(F)cc21 [Compound 554, (2S,2'S)-2,2′-((((2,2′-dichloro-[1,1′-biphenyl]-3,3′-diyl)bis(6-fluoro-3-oxo-2,3-dihydro-4H-benzo[b][1,4]oxazine-7,4-diyl))bis(ethane-2,1-diyl))bis(azanediyl))bis(3-hydroxypropanoic acid)]	5.1 nM	23.20%	55.8 nM	5.51 nM
